# Assay results from patent EP0429333B1, “Process for producing oxazopyrroloquinolines, novel oxazopyrroloquinolines, and use of oxazopyrroloquinolines” (priority 1989, dated 1991).
# What was measured:
# [1] = target: aldose reductase of kidney (Canis lupus familiaris, UniProt A0A8I3P2L6); test: Inhibitory effect on aldose reductase of kidney; format: biochemical, dog; details: read-out: Degree of inhibition for aldose reductase (%); for inhibition at 1 µM: concentration 1x10^-6 M; for inhibition at 2 µM: concentration 2x10^-6 M; for inhibition at 5 µM: concentration 5x10^-6 M; for inhibition at 0.5 µM: concentration 5x10^-7 M
# Experimental: Medulla of kidney of dog was homogenized with 10mM phosphoric acid buffer (pH 7.0) containing 2mM dithiothreitol in an amount of four times the volume of kidney medulla and subjected to centrifugation. The supernatant liquid was purified by affinity chromatography, gel filtration and chromatofocusing to obtain electrophoretically homogeneous aldose reductase. 0.05 ml of 3mM NADPH, 0.1 ml of DL-glyceraldehyde and 0.04 ml of distilled water were added to 0.8 ml of 0.1M phosphoric acid buffer (pH 6.2) and left to stand at 25°C for 3 minutes. Then, 0.01 ml of the aldose reductase solution was added thereto to start reaction and decreasing of absorbance of 340 nm was measured at 25°C with time. Amount of enzyme which consumes 1 µmole of NADPH for 1 minute was taken as 1 unit.
# [2] = tested on: male SPF-ICR mice; test: in vivo; details: mouse, in vivo
# Experimental: (1) Acute toxicity test: • (i) To male SPF-ICR mice of 5 weeks old (supplied by Charles River Co.) were intraperitoneally administered PQQ·2Na and OPQs in the dosages of 20, 40, 80, 160 and 200 mg/kg body weight of mouse, respectively and they were bred at 25°C for 14 days. OPQ, 1-methylpropyl OPQ, 2-methylthioethyl OPQ, and benzyl OPQ were used as the OPQs. One group consisted of 8 mice. […] One group consisted of 8 mice. […] They were bred at 25°C for 14 days. One group consisted of eight mice. […] (2) Toxicity to kidney (i) Toxicity to kidney determined by urine examination: In the same manner as in the acute toxicity test, PQQ·2Na and OPQs were respectively intraperitoneally administered to mice and these mice were bred. Urine was collected every day and concentration of glucose in urine was obtained using Uristex II (manufactured by Miles·Sankyo Co.). […]
# [3] = Solubility of the isolated compound, described in words; format: physicochemical; details: for solubility in water / solubility under neutral and alkaline conditions: water
# [4] = tested on: carbon tetrachloride (CCl4)-induced liver diseases; test: Pharmacological activity on carbon tetrachloride-induced liver diseases; format: in vivo, SD rats; details: 5mg/kg rat twice, CCl4 1 ml/kg rat; for Total bilirubin: Table 27: CCl4 only 1.2, no administration 0.5; for GPT: Table 27: CCl4 only 818, no administration 16; for GOT: Table 27: CCl4 only 3308, no administration 144
# [5] = tested on: kidney; test: Toxicity to kidney determined by blood examination; format: in vivo, mice; details: serum; for Creatinine: Table 2, no administration 0.8; for Urea nitrogen: Table 2, no administration 24; for Glucose: Table 2, no administration 78
# Experimental: After one day from administration, the mice were fasted (only water was given) and after lapse of 18 hours, blood was collected and serum was obtained therefrom. Glucose, urea nitrogen and creatinine in the serum were examined using FUJI Dry Chemslide (manufactured by Fuji Photo Film Co., Ltd.). […]
# Thereafter, the mice were fasted (with giving only water) and after lapse of 18 hours, blood was collected and serum was obtained therefrom. Contents of glucose, urea nitrogen and creatinine in serum were obtained using FUJI Dry Chemslide. The results were shown by average value for eight mice.
# [6] = target: T1, aldose reductase of rabbit lens (Oryctolagus cuniculus, UniProt P15122); test: Inhibitory effect on aldose reductase of lens; format: biochemical; details: read-out: Degree of inhibition for aldose reductase (%)
# T1 construct: to obtain electrophoretically homogeneous aldose reductase; from tissue; host or cells: rabbit lens
# Experimental: 0.05 ml of 3mM NADPH, 0.1 ml of DL-glyceraldehyde and 0.04 ml of distilled water were added to 0.8 ml of 0.1M phosphoric acid buffer (pH 6.2) and left to stand at 25°C for 3 minutes. Then, 0.01 ml of the aldose reductase solution was added thereto to start reaction and decreasing of absorbance of 340 nm was measured at 25°C with time. Amount of enzyme which consumes 1 µmole of NADPH for 1 minute was taken as 1 unit.
# Enzyme activity was measured under the same conditions as in the above measurement of aldose reductase activity except that 0.04 ml of aqueous solution of inhibitory substance in various concentrations was added in place of 0.04 ml of distilled water and degree of inhibition was calculated from comparison of the enzyme activity with the enzyme activity obtained in the absence of inhibitor. (1) OPQ, (2) methyl OPQ, (3) 1-methylpropyl OPQ, (4) 2-methylpropyl OPQ, (5) 2-carbamoylethyl OPQ, (6) hydroxymethyl OPQ, (7) 2-methylthioethyl OPQ, (8) 2-carboxyethyl OPQ, (9) 4-hydroxybenzyl OPQ, (10) 1-methylethyl OPQ, and (11) benzyl OPQ were used as inhibition substances and (12) PQQ was used as control.
# Lens of rabbit was homogenized with 10mM phosphoric acid buffer (pH 7.0) containing 2mM dithiothreitol in an amount of two times the volume of the lens and subjected to centrifugation. The supernatant liquid was purified by affinity chromatography, gel filtration and chromatofocusing to obtain electrophoretically homogeneous aldose reductase. Using (1) OPQ, (2) 1-methylpropyl OPQ, (3) 2-methylpropyl OPQ, (4) hydroxymethyl OPQ, and (5) 1-methylethyl OPQ as inhibition substances, degree of inhibition of these substances for aldose reductase of rabbit lens was examined in the same manner in Example 32.
# [7] = tested on: peritoneal macrophage; test: Test on macrophage-chemotaxis after intraperitoneal administration; format: in vivo, C3H/He mice; details: for (2) Chemotaxis factor was present: 50 % zymosan treated serum, no administration 40; for (2) - (1) Chemotaxied macrophage: no administration 29; for Relative activity of group (%): no administration = 100; for (1) Chemotaxis factor was not present: total number of chemotaxied macrophages at 3 points, no administration 11
# Experimental: Thirtytwo C3H/He mice (male, 7 weeks old, average body weight 20 g, supplied by Japan Charles River Co.) were divided into 4 groups (A - D) of 8 mice each.
# A solution of OPQ in physiological saline of pH 7.0 was intraperitoneally administered to each mouse 7 times, namely, on the 1st day, 2nd day, 3rd day, 4th day, 5th day, 6th day and 7th day. Dosage for one administration per one mouse was as follows: That is, 0.2 ml of the solution containing 0.2 mg/ml of OPQ for group B, 0.2 ml of the solution containing 0.5 mg/ml of OPQ for group C, 0.2 ml of the solution containing 1.0 mg/ml of OPQ for group D and 0.2 ml of physiological saline for group A.
# On the 8th day from starting of the experiment, the mice were anesthetized with ether and blood was drawn from carotid artery and 5 ml of cold Hanks solution was intraperitoneally injected and exudate cells for the abdominal cavity were collected. Exudate cells for the abdominal cavity of respective groups were gathered, washed three times with cold Hanks solution and suspended in RPMI medium at 5 x 10^5 cells/ml and macrophage-chemotaxis was measured. 50 % zymosan treated serum was used as chemotaxis factor and examination was conducted at three points for each sample. Number of chemotaxied macrophage was measured on microscope and 13 visual fields was examined for one point and the results are shown in Table 2. The value in the table is a total number of chemotaxied macrophages at 3 points for each sample. Preparation of Hanks solution and RPMI medium will be explained below.
# Test on macrophage-chemotaxis was conducted in the same manner as in Example 36 except that hydroxymethyl OPQ was intraperitoneally administered to each mouce 3 times of the 1st day, the 2nd day and the 3rd day in the following dosage for one administration per one mouse: 0.2 ml of hydroxymethyl OPQ solution containing 0.5 mg/ml of hydroxymethyl OPQ for group B, 0.2 ml of the solution containing 1.0 mg/ml of hydroxymethyl OPQ for group C, and 0.2 ml of the solution containing 1.5 mg/ml of hydroxymethyl OPQ for group D and exudate cells for the abdominal cavity were collected on the 4th day from starting of experiment.
# In Examples 36 - 40, macrophage activity was examined according to chemotaxis of peritoneal macrophage (literature 1) and activity of T cell and that of B cell were examined according to blast transformation reaction using concanavalin A and lipopolysaccharide, (LPS) as mitogen (literature 2). Literature 1: "Function of Macrophage and Method of Measurement of Function", pages 61-65 1985), edited by Educational Committee of Japan Bacteriological Society and published from Saikon Shuppan Co.) Literature 2: "New Method of Searching of Function of Lymphocytes", pages 350-355 (1987) edited by Junichi Yada and Michio Fujiwara and published from Chugai Igaku Co.
# [8] = 40 mg/kg mouse intraperitoneally
# [9] = 80 mg/kg mouse intraperitoneally
# [10] = 160 mg/kg mouse intraperitoneally
# [11] = 200 mg/kg mouse intraperitoneally
# [12] = 5 mg/kg mouse x 3 days intraperitoneally
# [13] = 10 mg/kg mouse x 3 days intraperitoneally
# [14] = 15 mg/kg mouse x 3 days intraperitoneally
Structure (SMILES),inhibition at 1 µM [1] [%],inhibition at 2 µM [1] [%],inhibition at 5 µM [1] [%],inhibition at 0.5 µM [1] [%],death of mice [2],solubility in acetone and diethyl ether [3],solubility in lower alcohols [3],solubility in water [3],solubility under neutral and alkaline conditions [3],Total bilirubin [4] [mg/dL],GPT [4] [U/l],GOT [4] [U/l],"Creatinine [5, 8] [mg/dL]","Urea nitrogen [5, 8] [mg/dL]","Glucose [5, 8] [mg/dL]","Creatinine [5, 9] [mg/dL]","Urea nitrogen [5, 9] [mg/dL]","Glucose [5, 9] [mg/dL]","Creatinine [5, 10] [mg/dL]","Urea nitrogen [5, 10] [mg/dL]",also measured
"CSCCc1nc2c3nc(C(=O)O)cc(C(=O)O)c3c3[nH]c(C(=O)O)cc3c2o1 [2-Methylthioethyl OPQ, 5-(2-Methylthioethyl)-2,8,10-tricarboxy-1H-oxazo-[5,4-h]-pyrrolo[2,3-f]quinoline]",42,54.9,81.8,24.3,no mice died,did not dissolve,dissolved,easily soluble,especially soluble,0.7,157,693,0.8,26,96,0.7,26,88,0.6,26,"inhibition at 10 µM ([1]; concentration 1x10^-5 M): 83%; Glucose [5, 10]: 97 mg/dL; Creatinine [5, 11]: 0.7 mg/dL; Urea nitrogen [5, 11]: 26 mg/dL; Glucose [5, 11]: 72 mg/dL"
"O=C(O)c1cc(C(=O)O)c2c(n1)c1nc(CO)oc1c1cc(C(=O)O)[nH]c12 [Hydroxymethyl OPQ, 5-Hydroxymethyl-2,8,10-tricarboxy-1H-oxazo[5,4-h]-pyrrolo[2,3-f]-quinoline]",57.9,68.2,,41.1,,did not dissolve,dissolved,easily soluble,very easily soluble,,,,,,,,,,,,"inhibition at 0.2 µM ([1]; concentration 2x10^-7 M): 26.7%; inhibition at 1 µM ([6]; concentration 1x10^-6 M): 50.1%; inhibition at 2 µM ([6]; concentration 2x10^-6 M): 60.4%; inhibition at 0.5 µM ([6]; concentration 5x10^-7 M): 31.9%; (2) Chemotaxis factor was present [7, 12]: 61; (2) - (1) Chemotaxied macrophage [7, 12]: 44; Relative activity of group (%) [7, 12]: 152%; (1) Chemotaxis factor was not present [7, 12]: 17; (2) Chemotaxis factor was present [7, 13]: 66; (2) - (1) Chemotaxied macrophage [7, 13]: 56; Relative activity of group (%) [7, 13]: 193%; (1) Chemotaxis factor was not present [7, 13]: 10; (2) Chemotaxis factor was present [7, 14]: 48; (2) - (1) Chemotaxied macrophage [7, 14]: 39; Relative activity of group (%) [7, 14]: 134%; (1) Chemotaxis factor was not present [7, 14]: 9"
"O=C(O)c1cc(C(=O)O)c2c(n1)c1nc(Cc3ccccc3)oc1c1cc(C(=O)O)[nH]c12 [Benzyl OPQ, 5-Benzyl-2,8,10-tricarboxy-1H-oxazo[5,4-h]-pyrrolo-[2,3-f]-quinoline]",35.7,46.4,63.3,,no mice died,did not dissolve,dissolved,easily soluble,especially soluble,0.7,233,993,0.7,23,90,0.7,23,87,0.7,26,"Glucose [5, 10]: 87 mg/dL; Creatinine [5, 11]: 0.7 mg/dL; Urea nitrogen [5, 11]: 25 mg/dL; Glucose [5, 11]: 84 mg/dL"
